Here are results for two compounds from US6979470B2 (priority 2001, dated 2005).

The target in experiment [1] is T1, COX-2 (Mus musculus, UniProt Q05769).
T1 construct: LPS, which was used to induce the expression of COX-2 in the RAW 264.7 cells; host or cells: RAW 264.7
T1 sequence (Q05769 18-604): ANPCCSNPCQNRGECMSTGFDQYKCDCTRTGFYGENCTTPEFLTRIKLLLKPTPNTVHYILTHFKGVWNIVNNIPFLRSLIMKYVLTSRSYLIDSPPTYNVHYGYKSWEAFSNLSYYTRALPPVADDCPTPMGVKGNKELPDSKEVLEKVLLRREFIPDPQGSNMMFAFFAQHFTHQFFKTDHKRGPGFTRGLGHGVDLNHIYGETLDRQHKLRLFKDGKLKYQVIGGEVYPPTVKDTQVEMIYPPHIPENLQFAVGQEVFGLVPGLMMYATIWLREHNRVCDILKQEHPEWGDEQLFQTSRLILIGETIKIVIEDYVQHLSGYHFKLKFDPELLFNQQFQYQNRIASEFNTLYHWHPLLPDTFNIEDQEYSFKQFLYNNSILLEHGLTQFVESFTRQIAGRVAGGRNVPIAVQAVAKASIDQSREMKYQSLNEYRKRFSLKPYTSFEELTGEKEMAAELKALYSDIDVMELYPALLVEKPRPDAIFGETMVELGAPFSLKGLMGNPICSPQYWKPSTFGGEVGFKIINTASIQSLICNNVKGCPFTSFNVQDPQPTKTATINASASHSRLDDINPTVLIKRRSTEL
In words: cell-based. Type of experiment: cell-based.
Protocol: On day one of the experiment, the log phase 264.7 cells were plated at 8×10^4 cells per well in 0.2 mL growth medium per well in a 96-well tissue culture plate. After 6 to 8 hours post plating, 100 μL of growth medium from each well was removed and replaced with 100 μL fresh medium. […] It was mixed until dissolved and stored at 4° C. Immediately before use, it was thawed at room temperature or in a 37° C. water bath. A new solution was prepared every 60 days.
On day two of the experiment, the test materials were prepared as 1000× stock in DMSO. For example, if the final concentration of the test material was to be 10 μg/mL, a 10 mg/mL stock was prepared by dissolving 10 mg of the test material in 1 mL of DMSO. Fresh test materials were prepared on day 2 of the experiment. In 1.7 mL microfuge tubes, 1 mL DMEM without FBS was added to obtain test concentrations of 0.05, 0.10, 0.5, and 1.0 μg/mL. 2 μL of the 1000×DMSO stock of the test material was added to the 1 mL of medium without FBS. The tube contained the final concentration of the test material was concentrated 2-fold. The tube was placed in incubator for 10 minutes to equilibrate.
One-hundred mL of medium was removed from each well of the cell plates prepared on day one. One-hundred mL of equilibrated 2× final concentration the test compounds were added to cells and incubated for 90 minutes. […]

Experiment [2] concerns COX-2. The settings on record: reported, specificity for COX-2 over COX-1; cited from earlier work.

SMILES strings stand for the structures.

One may read the IC50 as the midpoint of a concentration-inhibition curve. A high value points to weaker potency in that assay. As for `C=C1CC[C@@H]2[C@](C)(CO)[C@H](O)CC[C@@]2(C)[C@@H]1C/C=C1/C(=O)OC[C@H]1O` [Andrographolide], on COX-2 [1] (COX-1 IC50 (enzyme) / COX-2 IC50 (RAW 264.7)), the “SPECIFICIY COX-1/COX-2” value amounted to 5.2. The concentration for half-maximal inhibition (IC50) at COX-2 [1] (second compound alone, PGE2 production by COX-2, RAW 264.7 cells, 24 h LPS) is 762 µM.

Consider `CC(=O)Oc1ccccc1C(=O)O` [aspirin], for which the COX-2 specificity with COX-2 [2] was 0.6.
